Like-named read-outs stand apart in the source and are kept apart here.
Tests used:
Ps. cepacia 23 = assay: in vitro antibacterial activity, agar plate dilution method (MIC); assay type: cell-based, Pseudomonas cepacia; conditions: read-out: Minimum Inhibitory Concentration (MIC)
How it was run: (§1)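 First, strains were cultured overnight in Mueller Hinton broth. Next, one loopful went onto drug-containing Mueller Hinton agar (10^6 CFU/ml). Finally, after 37° C. incubation for 16 hours, MIC was determined in μg/ml.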

P. vulgaris No. 33 = assay: as above; assay type: cell-based; conditions: Proteus vulgaris, NO.33, 16 h, read-out: Minimum Inhibitory Concentration (MIC), *P. vulgaris No. 33, lactamase-producing strain; 10^6 CFU/ml
How it was run: as §1

P. vulgaris HX-19 = assay: as above; assay type: cell-based; conditions: Proteus vulgaris, HX19, 16 h, P. vulgaris HX-19; 10^6 CFU/ml; read-out: Minimum Inhibitory Concentration (MIC)
How it was run: as §1

K. pneumoniae No. 42 = assay: as above; assay type: cell-based; conditions: Klebsiella pneumoniae, NO.42, 16 h, read-out: Minimum Inhibitory Concentration (MIC), *K. pneumoniae No. 42, lactamase-producing strain; 10^6 CFU/ml
How it was run: as §1

E. coli GN5482 = assay: as above; assay type: cell-based; conditions: Escherichia coli, GN5482, 16 h, read-out: Minimum Inhibitory Concentration (MIC)
How it was run: as §1

E. cloacae 963 = assay: as above; assay type: cell-based; conditions: Enterobacter cloacae, 963, 16 h, read-out: Minimum Inhibitory Concentration (MIC), E. cloacae 963; 10^6 CFU/ml
How it was run: as §1

S. marcescens IAM 1184 = assay: as above; assay type: cell-based; conditions: Serratia marcescens, IAM1184, 16 h, read-out: Minimum Inhibitory Concentration (MIC)
How it was run: as §1

S. marcescens No. 16-2 = assay: as above; assay type: cell-based; conditions: Serratia marcescens, NO.162, 16 h
How it was run: as §1

K. oxytoca GN10650 = assay: as above; assay type: cell-based; conditions: Klebsiella oxytoca, GN10650, 16 h, read-out: Minimum Inhibitory Concentration (MIC), *K. oxytoca GN10650, lactamase-producing strain; 10^6 CFU/ml
How it was run: as §1

E. cloacae Nek 39 = assay: as above; assay type: cell-based; conditions: Enterobacter cloacae, NEK39, 16 h, read-out: Minimum Inhibitory Concentration (MIC), *E. cloacae Nek 39, lactamase-producing strain; 10^6 CFU/ml
How it was run: as §1

K. pneumoniae PCI-602 = assay: as above; assay type: cell-based; conditions: Klebsiella pneumoniae, PCI602, 16 h, read-out: Minimum Inhibitory Concentration (MIC), K. pneumoniae PCI-602; 10^6 CFU/ml
How it was run: as §1

M. morganii GN5407 = assay: as above; assay type: cell-based; conditions: Morganella morganii, GN5407, 16 h, read-out: Minimum Inhibitory Concentration (MIC), *M. morganii GN5407, lactamase-producing strain; 10^6 CFU/ml
How it was run: as §1

E. coli NIHJ JC2 = assay: as above; assay type: cell-based; conditions: Escherichia coli, NIHJJC2, 16 h, read-out: Minimum Inhibitory Concentration (MIC), E. coli NIHJ JC2, 10^6 CFU/ml, 37° C.
How it was run: as §1

S. aureus 209P NIHJ-JC1 = assay: as above; assay type: cell-based; conditions: Staphylococcus aureus, 16 h
How it was run: as §1

E. coli CSH(RE45) = assay: microbe, parasite or virus in culture; assay type: cell-based; conditions: Escherichia coli, 16 h, read-out: Minimum Inhibitory Concentration (MIC), *E. coli CSH(RE45), lactamase-producing strain; 10^6 CFU/ml
How it was run: as §1

E. coli CSH2 (RK1) = assay: microbe, parasite or virus in culture; assay type: cell-based; conditions: Escherichia coli, 16 h, read-out: Minimum Inhibitory Concentration (MIC), *E. coli CSH2 (RK1), lactamase-producing strain; 10^6 CFU/ml
How it was run: as §1

A. calcoaceticus No. 4 = assay: in vitro antibacterial activity, agar plate dilution method (MIC); assay type: cell-based, Acinetobacter calcoaceticus; conditions: Acinetobacter calcoaceticus, NO.4, 16 h, 10^6 CFU/ml
How it was run: as §1

Ps. aeruginosa IF03445 = assay: as above; assay type: cell-based, Pseudomonas aeruginosa; conditions: Pseudomonas aeruginosa, 10^6 CFU/ml
How it was run: as §1

Ps. aeruginosa AK 109 = assay: as above; assay type: cell-based, Pseudomonas aeruginosa; conditions: Pseudomonas aeruginosa, AK109, 16 h, Ps. aeruginosa AK 109; 10^6 CFU/ml; read-out: Minimum Inhibitory Concentration (MIC)
How it was run: as §1

Ps. aeruginosa AKR17 = assay: as above; assay type: cell-based, Pseudomonas aeruginosa; conditions: Pseudomonas aeruginosa, read-out: Minimum Inhibitory Concentration (MIC)
How it was run: as §1

[1] = Burkholderia cepacia, 16 h, Ps. cepacia 23, 10^6 CFU/ml
[2] = IF03445, 16 h, read-out: Minimum Inhibitory Concentration (MIC), Ps. aeruginosa IF03445
[3] = 16 h, Ps. aeruginosa AKR17, 10^6 CFU/ml
[4] = read-out: Minimum Inhibitory Concentration (MIC)
[5] = A. calcoaceticus No. 4, read-out: Minimum Inhibitory Concentration (MIC)

| SMILES | MIC (Ps. cepacia 23; [1]) [µg/mL] | MIC (P. vulgaris No. 33) [µg/mL] | MIC (P. vulgaris HX-19) [µg/mL] | MIC (K. pneumoniae No. 42) [µg/mL] | MIC (E. coli GN5482) [µg/mL] | MIC (E. cloacae 963) [µg/mL] | MIC (S. marcescens IAM 1184) [µg/mL] | MIC (K. oxytoca GN10650) [µg/mL] | MIC (E. cloacae Nek 39) [µg/mL] | MIC (K. pneumoniae PCI-602) [µg/mL] | MIC (M. morganii GN5407) [µg/mL] | MIC (E. coli NIHJ JC2) [µg/mL] | MIC (E. coli CSH(RE45)) [µg/mL] | MIC (E. coli CSH2 (RK1)) [µg/mL] | MIC (Ps. aeruginosa IF03445; [2]) [µg/mL] | MIC (Ps. aeruginosa AK 109) [µg/mL] | MIC (Ps. aeruginosa AKR17; [3]) [µg/mL] | MIC (S. marcescens No. 16-2; [4]) [µg/mL] | MIC (A. calcoaceticus No. 4; [5]) [µg/mL] | also measured |
| --- | --- | --- | --- | --- | --- | --- | --- | --- | --- | --- | --- | --- | --- | --- | --- | --- | --- | --- | --- | --- |
| C#CCO/N=C(\C(=O)N[C@@H]1C(=O)N2C(C(=O)O)=C(CSc3nnc(-c4ccc(O)c(O)c4)o3)CS[C@H]12)c1csc(N)n1 [compound 9, sodium 7β-[2-(2-aminothiazol-4-yl)-2-(2-propynyloxyimino)acetamido]-3-[5-(3,4-dihydroxyphenyl)-1,3,4-oxadiazol-2-yl]thiomethyl-3-cephem-4carboxylate] | 0.05 | 0.025 | < 0.006 | 0.025 | 0.39 | 0.0125 | 0.0125 | 6.25 | 0.1 | 0.0125 | 0.0125 | 0.1 | 0.0125 | 0.0125 | 1.56 | 0.2 | > 100 |  |  | MIC (S. marcescens No. 16-2; read-out: Minimum Inhibitory Concentration (MIC), *S. marcescens No. 16-2, lactamase-producing strain, 10^6 CFU/ml): 6.25 µg/mL; MIC (S. aureus 209P NIHJ-JC1; read-out: Minimum Inhibitory Concentration (MIC), S. aureus 209P NIHJ-JC1, 10^6 CFU/ml, 37° C., 16 hours): 0.78 µg/mL; MIC (A. calcoaceticus No. 4; read-out: Minimum Inhibitory Concentration (MIC), A. calcoaceticus No. 4): 0.1 µg/mL |
| CO/N=C(\C(=O)N[C@@H]1C(=O)N2C(C(=O)O)=C(CSc3nc(-c4ccccc4)cs3)CS[C@H]12)c1csc(N)n1 [compound 9, sodium 7μ-[2-(2-aminothiazol-4-yl)-2-methoxyiminoacetamido]-3-(4-phenylthiazol-2-yl)-thiomethyl-3-cephem-4-carboxylate, reference compound] |  | 0.78 | < 0.006 | 1.56 | 0.39 | 1.56 | 0.39 | 3.12 | 3.12 | < 0.006 | 0.78 | 0.78 | 0.78 | 0.39 |  | 25 | > 100 | 3.12 | 25 | MIC (Ps. cepacia 23; Burkholderia cepacia, 23, 16 h): 3.12 µg/mL; MIC (S. aureus 209P NIHJ-JC1; S. aureus 209P NIHJ-JC1, 10^6 CFU/ml, 37° C., 16 hours, read-out: Minimum Inhibitory Concentration (MIC)): 0.1 µg/mL; MIC (Ps. aeruginosa IF03445; 16 h, Ps. aeruginosa IF03445, read-out: Minimum Inhibitory Concentration (MIC)): 25 µg/mL |
| Nc1nc(/C(=N/OCC(=O)O)C(=O)N[C@@H]2C(=O)N3C(C(=O)O)=C(CSc4nnc(-c5ccc(O)c(O)c5)o4)CS[C@H]23)cs1 [compound 10, disodium 78-[2-(2-aminothiazol-4-yl)-2-carboxylatemethoxyiminoacetamido]-3-[5-(3,4-dihydroxyphenyl)-1,3,4-oxadiazol-2-yl]thiomethvl-3-cephem-4-carboxylate] | < 0.006 | 0.025 | < 0.006 | 0.025 | 0.39 | 0.025 | 0.0125 | 0.1 | 0.05 | < 0.006 | 0.025 | 0.05 | 0.0125 | < 0.006 | 0.39 | 0.2 |  | 0.39 | 0.05 | MIC (S. aureus 209P NIHJ-JC1; [4]): 12.5 µg/mL; MIC (Ps. aeruginosa AKR17; AKR17, 16 h): 12.5 µg/mL |

— US5061794A, “Cephalosporin derivatives, and antibacterial agents” (priority 1986, dated 1991)
